Laboratory results from patent US20110275684A1, “NOVEL BENZOTRIAZOLE DERIVATIVES USEFUL FOR THE TREATMENT OF CNS DISORDERS” (NEUROSEARCH A/S, priority 2009, published 2011).

Legend:
[1] = tested on: psychomotor seizures induced via corneal stimulation (6 Hz) in female NMRI mice; test: 6 Hz electroshock seizure model (anticonvulsant properties); format: in vivo; conditions: Mus musculus, po, 32 mA, 3 s corneal stimulation, p.o., pretreatment time 60 mins, vehicle 5% cremaphor, read-out: ED50 (dose that would give a 50% protection from seizures)
From the text: The animal models being used for the discovery of novel antiepileptic drugs are numerous. Among these, a low frequency (6 Hz) electroshock seizure model has recently come into the limelight as a potential model of pharmacoresistant epilepsy (see Epilepsy: a comprehensive textbook, pag. 1477, by By Jerome Engel, Timothy A. Pedley, Jean Aicardi, Marc A Dichter, Solomon Moshé—2007—Medical), and it is therefore an animal model of primary interest in antiepileptic drug discovery. The compounds of the invention have shown remarkable activity to protect against 6 Hz seizures.
The evaluation of the anticonvulsant properties was carried out in female NMRI mice (20-25 g, Taconic, Denmark). The mice were housed in groups (8 per cage according to weight) with food and water available ad libitum The environment was temperature (20±2° C.) and humidity (55±15%) controlled, and consisted of a 12:12 h light-dark cycle (lights on 06:00 h). The experiments were performed according to the Danish Committee for Experiments on Animals. […]
For screening purposes, the test compound was tested at 1 dose at 1 time-point. In the case of protection of 3 or more out of 8 mice, the compound were further evaluated in dose response (N=8/group). […]

Structure (SMILES)	melting point [°C]	ED50 [1] [mg/kg]
CC[C@@H](C(N)=O)n1nnc2cc(Br)ccc21 [Compound 12, (2S)-2-(5-Bromobenzotriazol-1-yl)butanamide]	–	38
CCC(C(N)=O)n1nnc2ccc(Br)cc21 (stereo not drawn) [Compound 3, 2-(6-Bromo-benzotriazol-1-yl)-butyramide]	181.2 to 182.1	–
CC[C@H](C(N)=O)n1nnc2c(F)cccc21 [Compound 23, (2R)-2-(4-Fluorobenzotriazol-1-yl)butanamide]	162.5 to 163.7	–
CCC(C(N)=O)n1nnc2c(F)cc(F)cc21 (stereo not drawn) [Compound 7, 2-(4,6-Difluoro-benzotriazol-1-yl)-butyramide]	199 to 200.5	–
CC(C)[C@@H](C(N)=O)n1nnc2ccccc21 [Compound 16, (2S)-2-(Benzotriazol-1-yl)-3-methyl-butanamide]	164 to 165.7	–
CC(C(N)=O)n1nnc2cc(F)ccc21 (stereo not drawn) [Compound 11, 2-(5-Fluoro-benzotriazol-1-yl)-propionamide]	138.6 to 140.1	–
CC[C@@H](C(N)=O)n1nnc2cc(Cl)ccc21 [Compound 18, (2S)-2-(5-Chlorobenzotriazol-1-yl)butanamide]	175.5 to 177.5	–
Brc1ccc2c(c1)nnn2Cc1c[nH]cn1	178.3 to 180.8	–
CCC(C(N)=O)n1nnc2ccccc21 (racemic) [Compound 1, 2-Benzotriazol-1-yl-butyramide]	–	38
NC(=O)Cn1nnc2c(F)cc(F)cc21 [Compound 9, 2-(4,6-Difluoro-benzotriazol-1-yl)-acetamide]	247.8 to 248.9	–
Fc1cc(F)c2nnn(Cc3ncc[nH]3)c2c1	166 to 167.5	–
CC[C@@H](C(N)=O)n1nnc2c(F)cccc21 [Compound 24, (2S)-2-(4-Fluorobenzotriazol-1-yl)butanamide]	163.9 to 165.1	–
c1ccc2c(c1)nnn2Cc1c[nH]cn1	137.8 to 138.9	–

Continued, in another order:

melting point [°C]	Structure (SMILES)	ED50 [1] [mg/kg]
155 to 156.3	CCC(C(N)=O)n1nnc2cc(F)cc(F)c21 (stereo not drawn) [Compound 6, 2-(5,7-Difluoro-benzotriazol-1-yl)-butyramide]	–
177.5 to 178.8	CC(C)CC(C(N)=O)n1nnc2ccccc21 (stereo not drawn) [Compound 17, 2-(Benzotriazol-1-yl)-4-methyl-pentanamide]	–
236.5 to 238	NC(=O)Cn1nnc2cc(F)cc(F)c21 [Compound 8, 2-(5,7-Difluoro-benzotriazol-1-yl)-acetamide]	–
153 to 154.5	CC[C@@H](C(N)=O)n1nnc2c(Cl)cccc21 [Compound 15, (2S)-2-(4-Chlorobenzotriazol-1-yl)butanamide]	–
206.2 to 207.3	CC[C@H](C(N)=O)n1nnc2cc(Br)ccc21 [Compound 21, (2R)-2-(5-Bromobenzotriazol-1-yl)butanamide]	–
156.8 to 158	CC(C(N)=O)n1nnc2ccc(F)cc21 (stereo not drawn) [Compound 10, 2-(6-Fluoro-benzotriazol-1-yl)-propionamide]	–
221.5 to 222.5	NC(=O)Cn1nnc2cc(Br)ccc21 [Compound 13, 2-(5-Bromo-benzotriazol-1-yl)-acetamide]	–
241.8 to 242.7	CS(=O)(=O)c1ccc2nnn(CC(N)=O)c2c1 [Compound 5, 2-(6-Methanesulfonyl-benzotriazol-1-yl)-acetamide]	–
